Measured values: PMC10572522, “A Designed Analog of an Antimicrobial Peptide, Crabrolin, Exhibits Enhanced Anti-Proliferative and In Vivo Antimicrobial Activity” (International Journal of Molecular Sciences, 2023)
Residues, ends and D or L forms follow the SMILES beside them.

How the values were obtained:
[1] = test system: E. faecium (NTCC12697) biofilm; type: cell-based, Enterococcus faecium; conditions: for MBIC: biofilm inhibitory rate more than 90%; for MBEC: eradication rate greater than 99.9%
Experimental: (§1) To measure the antibiofilm activity of crabrolin and its derivatives, four drug-resistant biofilm-forming strains, MRSA (NCTC 12493), K. pneumoniae (ATCC 43816), E. faecium (NTCC-12697), and P. aeruginosa (ATCC 9027), were used in this assay. Tryptic soy broth (TSB) (for the Gram-positive bacteria) and Luria–Bertani broth (LB) (for the Gram-negative bacteria) were used to culture the bacteria.
(§2) The mass of the biofilm in this assay was detected by the crystal violet staining method. First, 100 μL of 5 × 10^5 CFU/mL bacteria was incubated with 1 μL of different peptide solutions (ranging from 51200 μM to 100 μM) for 24 h at 37 °C with 200 rpm shaking. After the biofilm formation, 100 μL of PBS was used to rinse the biofilm twice. Next, 100 µL of methanol was added to fix the biofilm, and the biofilm was then dried. Thereafter, 100 μL of 0.1% crystal violet was added and left to stain for 15 min, and then the excess crystal violet was further rinsed by PBS. After the plate had air-dried, 30% glacial acetic acid was added to each well of the plate, and the plate was shaken for 15 min before the optical density (OD) value was measured at 595 nm using a Synergy HT plate reader. The MBIC value refers to the minimum concentration at which the biofilm inhibitory rate was more than 90%.
(§3) Different from measuring the MBIC value, to determine the MBEC value, 100 μL of the bacteria was first added to 96-well plates. After the biofilm was formed, the biofilm was rinsed with PBS twice to remove the planktonic cells, and then different concentrations of the drugs were added to the biofilm (the same as the MBIC assay). The mixture was incubated at 37 °C with shaking at 200 rpm. After 24 h of incubation, the mass of the biofilm was measured in the same way as the MBIC value, and the minimum concentration at which the eradication rate was greater than 99.9% was considered to be the MBEC value.

[2] = test system: K. pneumoniae (ATCC 43816) biofilm; type: cell-based, Klebsiella pneumoniae; conditions: for MBIC: biofilm inhibitory rate more than 90%; for MBEC: eradication rate greater than 99.9%
Experimental: as §1, §2, §3

Hemolysis assay = type: cell-based, horse; conditions: horse, erythrocytes (2% suspension); at the peptide's maximum MIC; relative to Triton X-100; read-out: Hemolysis under the Maximum MIC
Experimental: (§4) According to the procedures described in detail in a previous study, the debris and impurities of the erythrocytes were washed with PBS in advance to yield 2% of the erythrocyte suspension, and the drug concentration was diluted from 1024 µM to 2 µM with PBS [53]. The same amounts of the drug and the erythrocyte suspension were mixed and cultured at 37 °C for 2 h; 0.1% Triton X-100 (Sigma-Aldrich, St. Louis, MO, USA) was prepared as a positive control, and PBS was prepared as a negative control. After the incubation, the supernatant was transferred to a 96-well plate and then detected using a Synergy HT plate reader at 570 nm.

horse erythrocytes = test: Hemolysis assay; type: cell-based; conditions: for HC10 (10% hemolytic concentration): erythrocytes, 37 °C, 2 h
Experimental: as §4

[3] = test system: MRSA (NCTC 12493) biofilm; type: cell-based, methicillin-resistant Staphylococcus aureus; conditions: for MBIC: biofilm inhibitory rate more than 90%; for MBEC: eradication rate greater than 99.9%
Experimental: as §1, §2, §3

MRSA (NCTC 12493) = test: Antimicrobial susceptibility assay (MIC/MBC); type: cell-based, methicillin-resistant Staphylococcus aureus; conditions: for MIC: MHB, 37 °C, 20 h
Experimental: (§5) Six bacteria were tested in this experiment to detect the antimicrobial effects of crabrolin and its derivatives, including S. aureus (NCTC 10788), MRSA (NCTC 12493), E. coli (ATCC 8739), K. pneumoniae (ATCC 43816), E. faecium (NTCC-12697), and P. aeruginosa (ATCC 9027). The tested bacteria were cultured in Mueller Hinton broth medium (MHB) with norfloxacin (20 mg/L) as a positive control. All bacteria were incubated at 37 °C overnight and diluted to 5 × 10^5 CFU/mL before treating with the peptides. Stock solutions of 51,200 µM peptides were prepared in phosphate-buffered saline (PBS) and further diluted by a factor of two to 100 µM. Next, 1 µL of each peptide solution was mixed with 99 µL of bacterial subculture in a 96-well plate, and the plate was incubated at 37 °C for 20 h. After culturing, the absorbance of each well in the 96-well plate was analyzed at 550 nm using a Synergy HT plate reader (BioliseBioTek, Winooski, VT, USA). […] Starting with the MIC value, 10 µL of the solution from each well was dripped onto Mueller Hinton agar (MHA) plates. The plates were cultured at 37 °C for 20 h. After culturing, the lowest concentration with no colony growth was regarded as the MBC.

E. coli (ATCC 8739) = test: Antimicrobial susceptibility assay (MIC/MBC); type: cell-based, Escherichia coli; conditions: for MIC: MHB, 37 °C, 20 h
Experimental: as §5

[4] = test system: K. pneumoniae (ATCC 43816); test: Antimicrobial susceptibility assay (MIC/MBC); type: cell-based, Klebsiella pneumoniae; conditions: for MIC: MHB, 37 °C, 20 h
Experimental: as §5

[5] = test system: P. aeruginosa (ATCC 9027) biofilm; type: cell-based, Pseudomonas aeruginosa; conditions: for MBIC: biofilm inhibitory rate more than 90%; for MBEC: eradication rate greater than 99.9%
Experimental: as §1, §2, §3

E. faecium (NTCC 12697) = test: Antimicrobial susceptibility assay (MIC/MBC); type: cell-based, Enterococcus faecium; conditions: for MIC: MHB, 37 °C, 20 h
Experimental: as §5

[6] = test system: human keratinocyte cell line HaCaT; test: Anti-proliferative assay (MTT); type: cell-based; conditions: HaCaT (normal keratinocytes), 24 h
Experimental: (§6) The human non-small-cell lung cancer line, H838, the human prostate carcinoma cell line, PC-3, the human glioblastoma astrocytoma, U251MG, the human breast cancer cell line, MCF-7, the human colorectal carcinoma cell line, HCT116, and the human keratinocyte cell line, HaCaT, were used to detect the anti-proliferative effects of the crabrolin and its derivatives in vitro. A total of 8000 cells were seeded in each well of a 96-well plate. After the cells had adhered to the wall, the cells were starved for 4 h. After the starvation, the cells were incubated with different concentrations of the drugs, ranging from 100 µM to 1 nM, for 24 h, with 0.1% Triton X-100 used as a positive control. Next, 10 µL of MTT (3-(4,5-dimethylthiazol-2-yl)-2,5-diphenyltetrazolium bromide) solution (5 mg/mL) was added to each well of the 96-well plate. After 2 h of incubation, 100 μL of DMSO-superseded medium was added to each well to dissolve the formazan crystals. Finally, the absorbance was detected using a Synergy HT plate reader at 570 nm.

[7] = test system: human prostate carcinoma cell line PC-3; test: Anti-proliferative assay (MTT); type: cell-based; conditions: PC3, MTT, 24 h
Experimental: as §6

[8] = test system: human non-small-cell lung cancer line H838; test: Anti-proliferative assay (MTT); type: cell-based; conditions: 24 h
Experimental: as §6

[9] = test system: human breast cancer cell line MCF-7; test: Anti-proliferative assay (MTT); type: cell-based; conditions: MCF-7, MTT, 24 h
Experimental: as §6

[10] = test system: human colorectal carcinoma cell line HCT-116; test: Anti-proliferative assay (MTT); type: cell-based; conditions: HCT-116, MTT, 24 h
Experimental: as §6

[11] = test system: human glioblastoma astrocytoma U251MG; test: Anti-proliferative assay (MTT); type: cell-based; conditions: 24 h
Experimental: as §6

[12] = test system: P. aeruginosa (ATCC 9027); test: Antimicrobial susceptibility assay (MIC/MBC); type: cell-based, Pseudomonas aeruginosa; conditions: for MIC: MHB, 37 °C, 20 h
Experimental: as §5

S. aureus (NCTC 10788) = test: Antimicrobial susceptibility assay (MIC/MBC); type: cell-based, Staphylococcus aureus; conditions: for MIC: MHB, 37 °C, 20 h
Experimental: as §5

Structure (SMILES) | MBIC [1] | MBEC [1] | MBIC [2] | MBEC [2] | hemolysis at 2 h (Hemolysis assay) | HC10 (10% hemolytic concentration) (horse erythrocytes) | MBIC [3] | MBEC [3] | MBC (MRSA (NCTC 12493)) | MIC (MRSA (NCTC 12493)) | MBC (E. coli (ATCC 8739)) | MIC (E. coli (ATCC 8739)) | MBC [4] | MIC [4] | MBIC [5] | MBEC [5] | MBC (E. faecium (NTCC 12697)) | MIC (E. faecium (NTCC 12697)) | IC50 [6] | IC50 [7] | also measured
CC[C@H](C)[C@H](NC(=O)[C@H](CCCNC(=N)N)NC(=O)[C@@H]1CCCN1C(=O)[C@H](CC(C)C)NC(=O)[C@@H](N)CCCNC(=N)N)C(=O)N[C@@H](CC(C)C)C(=O)N[C@@H](CCCNC(=N)N)C(=O)N[C@@H](CCCCN)C(=O)N[C@H](C(=O)N[C@H](C(=O)N[C@@H](CCCNC(=N)N)C(=O)N[C@@H](C)C(=O)N[C@@H](CC(C)C)C(N)=O)C(C)C)[C@@H](C)CC [Crabrolin-FR, RLPRILRKIVRAL-NH2] (H-RLPRILRKIVRAL-NH2) | 32 µM | > 512 µM | 8 µM | 512 µM | 5.67% | 18.082 µM | 8 µM | 256 µM | 4 µM | 4 µM | 4 µM | 2 µM | 16 µM | 8 µM | 8 µM | > 512 µM | 16 µM | 8 µM | 30.4 µM | 15.9 µM | IC50 [8]: 31.5 µM; IC50 [9]: 33.9 µM; IC50 [10]: 30.3 µM; IC50 [11]: 62.2 µM; MBC [12]: 16 µM; MIC [12]: 4 µM; MBC (S. aureus (NCTC 10788)): 2 µM; MIC (S. aureus (NCTC 10788)): 2 µM
CC[C@H](C)[C@H](NC(=O)[C@H](CCCNC(=N)N)NC(=O)[C@H](CCCNC(=N)N)NC(=O)[C@H](CC(C)C)NC(=O)[C@@H](N)CCCNC(=N)N)C(=O)N[C@@H](CC(C)C)C(=O)N[C@@H](CCCNC(=N)N)C(=O)N[C@@H](CCCCN)C(=O)N[C@H](C(=O)N[C@H](C(=O)N[C@@H](CCCNC(=N)N)C(=O)N[C@@H](CCCNC(=N)N)C(=O)N[C@@H](CC(C)C)C(N)=O)C(C)C)[C@@H](C)CC [Crabrolin-PR, RLRRILRKIVRRL-NH2] (H-RLRRILRKIVRRL-NH2) | 32 µM | > 512 µM | 8 µM | > 512 µM | 3.09% | 5019 µM | 8 µM | 512 µM | 8 µM | 4 µM | 8 µM | 2 µM | 16 µM | 8 µM | 8 µM | > 512 µM | 16 µM | 8 µM | 29.5 µM | 22.4 µM | Hemolytic activity at the measured maximum concentration (horse erythrocytes; maximum concentration (range 1 to 512 μM)): less than 1%; IC50 [8]: 32.3 µM; IC50 [9]: 12.3 µM; IC50 [10]: 16.3 µM; IC50 [11]: 17.7 µM; MBC [12]: 16 µM; MIC [12]: 4 µM; MBC (S. aureus (NCTC 10788)): 4 µM; MIC (S. aureus (NCTC 10788)): 2 µM
